Laboratory results from US20260234543A1, “MICROORGANISMS AND METHODS FOR REDUCING BY-PRODUCTS” (Genomatica, Inc., priority 2023, published 2026).

Key:
[1] = system: acyl-CoA synthetase (ACS) (SEQ ID NO: 1); assay: ACS activity on substrates of various chain lengths (enzymatic coupled assay for detection of AMP); assay type: biochemical, Ruegeria pomeroyi; conditions: 5 mM substrate, pH 7.5; for Activity: 250 μM CoA, 1 mM ATP
Protocol: Purified acyl-CoA synthetase (ACS) (GenBank Accession No. WP_011046428.1; see, SEQ ID NO: 1) was assayed for activity on a range of substrates of various chain lengths. The substrates tested, which were conjugate bases (or carboxylates) of C2-C8 carboxylic acids, included acetate (C2), acetoacetate (C4), butyrate (C4), (R)- and(S)-3-hydroxybutryate ((R)-3-HB and(S)-3HB; C4), succinate (C4), hexanoate (C6), adipate (C6), 6-aminocaproic acid (6ACA; C6), and octanoate (C8).
An enzymatic coupled assay for detection of AMP, which is a co-product of the synthetase/ligase enzymatic reaction catalyzed by the ACS/CoA ligase, was used. The coupling enzymes used were adenylate kinase, pyruvate dehydrogenase, and lactate dehydrogenase, which catalyze reactions resulting in the oxidation of 2 NADH molecules per molecule of AMP produced by the ACS/CoA ligase enzymatic reaction. The coupling reagents for AMP detection were phospho (enol) pyruvate and NADH. The ACS/CoA ligase enzymatic reactions were followed by monitoring NADH oxidation over time, by measuring absorbance at 340 nm.
Reactions were set up in 96-well absorbance plates, in aqueous buffer at pH 7.5, and 5 mM of conjugate base substrate, 250 μM of Coenzyme A (CoA), 1 mM of ATP, 5 mM of MgCl2, 1 mM of phospho (enol) pyruvate, 500 μM of NADH, and non-rate limiting concentrations of the three coupling enzymes (adenylate kinase, pyruvate dehydrogenase, and lactate dehydrogenase), were added for each reaction. The ACS enzyme was added at a concentration that was appropriate for measuring a linear change on absorbance over up to 20 minutes. For example, 100 nM of ACS was added for the reactions with butyrate or 3-HB as the substrates. Negative control reactions omitted the substrate (conjugate base), the CoA, or the ACS enzyme.

[2] = system: CAR enzyme (SEQ ID NO: 3); assay: In vitro CAR activity for conversion of 3HB to 3HB-Ald (NADPH absorbance at 340 nm); assay type: biochemical, Mycobacterium avium; conditions: for CAR Activity: 1 μM CAR, 0.5 mM NADPH, 1 mM ATP
Protocol: In vitro CAR activity for the conversion of 3HB to 3HB—Ald was determined by direct measurement of the decrease in NADPH concentration, by measuring NADPH absorbance at 340 nm over time. The reactions were carried out in 96-well absorbance plates, and varying concentrations of 3HB substrate (see, TABLE 8 below), 0.5 mM of NADPH, 1 mM of ATP, 5 mM of MgCl2, and 1 μM of CAR enzyme (see, SEQ ID NO: 3) were added. A negative control reaction was included, in which addition of 3HB substrate was omitted. CAR activity was measured as μM of NADPH oxidized per minute per μM of CAR enzyme.

Row | Structure (SMILES) | Activity [1] | ACS activity on substrate (in words) [1] | other results
1 | CCCCCCCC(=O)O [Octanoate, octanoate] | No activity | – | –
2 | C[C@H](O)CC(=O)O [(S)-3HB, (3S)-hydroxybutyrate] | 222 μM AMP/min/μM ACS | – | –
3 | O=C(O)CCCCC(=O)O [Adipate, adipate] | No activity | – | –
4 | C[C@@H](O)CC(=O)O [(R)-3HB, (3R)-hydroxybutyrate] | 322 μM AMP/min/μM ACS | – | –
5 | NCCCCCC(=O)O [Strain 6ACA, 6-aminocaproic acid] | 0.015 μM AMP/min/μM ACS | exhibits activity | –
6 | CC(O)CC(=O)O (stereo not drawn) [Strain 3HB, 3-hydroxybutyrate] | – | has activity on both the (R) and(S) forms | CAR activity as a function of 3HB concentration (in words) ([2]; 0.78125-50 mM 3HB): CAR activity increases as the concentration of 3HB substrate increases; CAR Activity ([2]; 3HB substrate 0.78125 mM): 0.47 μM NADPH oxidized/min/μM CAR; CAR Activity ([2]; 3HB substrate 1.5625 mM): 1.30 μM NADPH oxidized/min/μM CAR; CAR Activity ([2]; 3HB substrate 3.125 mM): 2.61 μM NADPH oxidized/min/μM CAR; CAR Activity ([2]; 3HB substrate 6.25 mM): 4.24 μM NADPH oxidized/min/μM CAR; CAR Activity ([2]; 3HB substrate 12.5 mM): 5.87 μM NADPH oxidized/min/μM CAR; CAR Activity ([2]; 3HB substrate 25 mM): 8.81 μM NADPH oxidized/min/μM CAR; CAR Activity ([2]; 3HB substrate 50 mM): 10.25 μM NADPH oxidized/min/μM CAR
7 | O=C(O)CCC(=O)O [Succinate, succinate] | 0.06 μM AMP/min/μM ACS | exhibits activity | –
8 | CC(=O)O [Acetate] | 38 μM AMP/min/μM ACS | exhibits activity | –
9 | CC(=O)CC(=O)O [Acetoacetate] | 34 μM AMP/min/μM ACS | exhibits activity | –
